# System: LNCaP cells
# Test: Gene expression in bicalutamide-treated vs untreated LNCaP cells (subtraction library, Gene Expression Micro-Array)
# Assay type: cell-based
# Conditions: 25 hours
compound,measurement,setting,value
"CC(O)(CS(=O)(=O)c1ccc(F)cc1)C(=O)Nc1ccc(C#N)c(C(F)(F)F)c1 (centres unmarked) [bicalutamide, Bicalutamide]",FOLD INCREASE IN mRNA: HU-K4 {470677},"SEQ ID NO 145, 100 nM bicalutamide",3.6 fold
same,FOLD INCREASE IN mRNA: ESTs {126530},"SEQ ID NO 146, 100 nM bicalutamide",3.5 fold
same,FOLD INCREASE IN mRNA: ESTs {429327},"SEQ ID NO 147, 100 nM bicalutamide",3.5 fold
same,FOLD INCREASE IN mRNA: Vascular endothelial growth factor (VEGF (165)) {488697},"SEQ ID NO 148, 100 nM bicalutamide",3.2 fold
same,FOLD INCREASE IN mRNA: ESTs {50914},"SEQ ID NO 149, 100 nM bicalutamide",3.1 fold
same,FOLD INCREASE IN mRNA: ESTs {279847},"SEQ ID NO 150, 100 nM bicalutamide",3.1 fold
same,FOLD INCREASE IN mRNA: ESTs {361548},"SEQ ID NO 151, 100 nM bicalutamide",3.1 fold
same,FOLD INCREASE IN mRNA: ESTs {364730},"SEQ ID NO 152, 100 nM bicalutamide",3.1 fold
same,FOLD INCREASE IN mRNA: ESTs {470212},"SEQ ID NO 153, 100 nM bicalutamide",3.1 fold
same,FOLD INCREASE IN mRNA: ESTs {471210},"SEQ ID NO 154, 100 nM bicalutamide",3.1 fold
same,FOLD INCREASE IN mRNA: ESTs {289300},"SEQ ID NO 155, 100 nM bicalutamide",3 fold
same,FOLD INCREASE IN mRNA: ESTs {427725},"SEQ ID NO 156, 100 nM bicalutamide",3 fold
same,FOLD INCREASE IN mRNA: ESTs {428217},"SEQ ID NO 157, 100 nM bicalutamide",2.9 fold
same,FOLD INCREASE IN mRNA: rfp transforming protein {485268},"SEQ ID NO 158, 100 nM bicalutamide",2.8 fold
same,FOLD INCREASE IN mRNA: ESTs {487420},"SEQ ID NO 159, 100 nM bicalutamide",2.8 fold
same,FOLD INCREASE IN mRNA: 60S RIBOSOMAL PROTEIN L18A {509699},"SEQ ID NO 160, 100 nM bicalutamide",2.8 fold
same,FOLD INCREASE IN mRNA: ESTs {31943},"SEQ ID NO 161, 100 nM bicalutamide",2.7 fold
same,FOLD INCREASE IN mRNA: ESTs {376271},"SEQ ID NO 162, 100 nM bicalutamide",2.7 fold
same,FOLD INCREASE IN mRNA: ESTs {469642},"SEQ ID NO 163, 100 nM bicalutamide",2.7 fold
same,FOLD INCREASE IN mRNA: ESTs {471826},"SEQ ID NO 164, 100 nM bicalutamide",2.7 fold
same,FOLD INCREASE IN mRNA: KIAA0262 {485008},"SEQ ID NO 165, 100 nM bicalutamide",2.7 fold
same,FOLD INCREASE IN mRNA: ESTs {292082},"SEQ ID NO 166, 100 nM bicalutamide",2.6 fold
same,FOLD INCREASE IN mRNA: ESTs {365557},"SEQ ID NO 167, 100 nM bicalutamide",2.6 fold
same,FOLD INCREASE IN mRNA: Immunogloblin light chain (lambda) {119218},"SEQ ID NO 168, 100 nM bicalutamide",2.5 fold
same,FOLD INCREASE IN mRNA: ELP-1 {147979},"SEQ ID NO 169, 100 nM bicalutamide",2.5 fold
same,FOLD INCREASE IN mRNA: TRAMP protein {149355},"SEQ ID NO 170, 100 nM bicalutamide",2.5 fold
same,FOLD INCREASE IN mRNA: ESTs {294078},"SEQ ID NO 171, 100 nM bicalutamide",2.5 fold
same,FOLD INCREASE IN mRNA: ESTs {291005},"SEQ ID NO 172, 100 nM bicalutamide",2.5 fold
same,FOLD INCREASE IN mRNA: ESTs {365907},"SEQ ID NO 173, 100 nM bicalutamide",2.5 fold
same,FOLD INCREASE IN mRNA: ESTs {427801},"SEQ ID NO 174, 100 nM bicalutamide",2.5 fold
same,FOLD INCREASE IN mRNA: ESTs {469515},"SEQ ID NO 175, 100 nM bicalutamide",2.5 fold
same,FOLD INCREASE IN mRNA: Tral mRNA for human homologue of murine tumor rejection antigen gp96 {509486},"SEQ ID NO 176, 100 nM bicalutamide",2.5 fold
same,FOLD INCREASE IN mRNA: Biotin-[propionyl-CoA-carboxylase (ATP-hydrolysing)] {176590},"SEQ ID NO 177, 100 nM bicalutamide",2.4 fold
same,FOLD INCREASE IN mRNA: Tral mRNA for human homologue of murine tumor rejection antigen gp96 {242829},"SEQ ID NO 178, 100 nM bicalutamide",2.4 fold
same,FOLD INCREASE IN mRNA: Cancellous bone osteoblast mRNA for GS3786 {486005},"SEQ ID NO 179, 100 nM bicalutamide",2.4 fold
same,FOLD INCREASE IN mRNA: ESTs {509583},"SEQ ID NO 180, 100 nM bicalutamide",2.4 fold
same,FOLD INCREASE IN mRNA: ESTs {44551},"SEQ ID NO 181, 100 nM bicalutamide",2.3 fold
same,FOLD INCREASE IN mRNA: ESTs {245853},"SEQ ID NO 182, 100 nM bicalutamide",2.3 fold
same,FOLD INCREASE IN mRNA: ESTs {306075},"SEQ ID NO 183, 100 nM bicalutamide",2.3 fold
same,FOLD INCREASE IN mRNA: ESTs {322143},"SEQ ID NO 184, 100 nM bicalutamide",2.3 fold
same,FOLD INCREASE IN mRNA: ESTs {322749},"SEQ ID NO 185, 100 nM bicalutamide",2.3 fold
same,FOLD INCREASE IN mRNA: ESTs {359877},"SEQ ID NO 186, 100 nM bicalutamide",2.3 fold
same,FOLD INCREASE IN mRNA: ESTs {360446},"SEQ ID NO 187, 100 nM bicalutamide",2.3 fold
same,FOLD INCREASE IN mRNA: ESTs {360789},"SEQ ID NO 188, 100 nM bicalutamide",2.3 fold
same,FOLD INCREASE IN mRNA: Protein tyrosine kinase t-Rorl {418257},"SEQ ID NO 189, 100 nM bicalutamide",2.3 fold
same,FOLD INCREASE IN mRNA: ESTs {486712},"SEQ ID NO 190, 100 nM bicalutamide",2.3 fold
same,FOLD INCREASE IN mRNA: ESTs {489106},"SEQ ID NO 191, 100 nM bicalutamide",2.3 fold

# From patent US6506607B1, “Methods and compositions for the identification and assessment of prostate cancer therapies and the diagnosis of prostate cancer” (Millennium Pharmaceuticals, Inc., priority 1997, dated 2003)
